According to the NIST ThermoML archive (doi:10.1016/j.jct.2004.12.014):

Key:
[1] = excess molar enthalpy (molar enthalpy of mixing); xn = mol fraction of the nth substance listed; settings: 318.15 K, 101 kPa, Liquid
[2] = xn = mol fraction of the nth substance listed; settings: 318.15 K, 101 kPa, Liquid

CCCOC(=O)CC [propyl propanoate] + CCCCCCC
Settings	excess molar enthalpy [kcal/mol]	excess molar volume [m3/mol]
[1], x1 = 0.0639	0.0623	–
[1], x1 = 0.1325	0.109	–
[1], x1 = 0.2009	0.149	–
[1], x1 = 0.273	0.179	–
[1], x1 = 0.338	0.198	–
[1], x1 = 0.3985	0.208	–
[1], x1 = 0.4549	0.215	–
[1], x1 = 0.5052	0.218	–
[1], x1 = 0.5147	0.218	–
[1], x1 = 0.5577	0.214	–
[1], x1 = 0.6066	0.207	–
[1], x1 = 0.6615	0.194	–
[1], x1 = 0.7197	0.173	–
[1], x1 = 0.7781	0.147	–
[1], x1 = 0.8381	0.115	–
[1], x1 = 0.8975	0.0783	–
[1], x1 = 0.9534	0.0399	–
[2], x1 = 0.0283	–	9e-08
[2], x1 = 0.066	–	2.02e-07
[2], x1 = 0.1305	–	3.13e-07
[2], x1 = 0.1912	–	4.11e-07
[2], x1 = 0.2529	–	4.97e-07
[2], x1 = 0.3157	–	5.6e-07
[2], x1 = 0.3768	–	5.86e-07
[2], x1 = 0.437	–	6.03e-07
[2], x1 = 0.4973	–	6.01e-07
[2], x1 = 0.5557	–	5.81e-07
[2], x1 = 0.6132	–	5.43e-07
[2], x1 = 0.6703	–	4.91e-07
[2], x1 = 0.7248	–	4.24e-07
[2], x1 = 0.7801	–	3.67e-07
[2], x1 = 0.8355	–	2.94e-07
[2], x1 = 0.8887	–	2.07e-07
[2], x1 = 0.9444	–	1.24e-07

CCOC(=O)CC [ethyl propanoate] + CCCCCCCCC
Settings	excess molar enthalpy, [1] [kcal/mol]	excess molar volume, [2] [m3/mol]
x1 = 0.0376	–	1.65e-07
x1 = 0.0817	0.092	–
x1 = 0.0926	–	3.58e-07
x1 = 0.1719	0.168	–
x1 = 0.1744	–	6.18e-07
x1 = 0.2554	–	8.2e-07
x1 = 0.2598	0.231	–
x1 = 0.3255	–	9.43e-07
x1 = 0.3403	0.272	–
x1 = 0.3925	–	1.022e-06
x1 = 0.4145	0.297	–
x1 = 0.457	–	1.075e-06
x1 = 0.4797	0.309	–
x1 = 0.4909	0.311	–
x1 = 0.523	–	1.077e-06
x1 = 0.5379	0.31	–
x1 = 0.5764	0.305	–
x1 = 0.5826	–	1.066e-06
x1 = 0.5876	0.303	–
x1 = 0.6277	0.291	–
x1 = 0.6348	–	1.027e-06
x1 = 0.6791	0.271	–
x1 = 0.6882	–	9.47e-07
x1 = 0.732	0.243	–
x1 = 0.7398	–	8.52e-07
x1 = 0.7883	0.207	7.57e-07
x1 = 0.8344	–	6.26e-07
x1 = 0.8451	0.163	–
x1 = 0.878	–	5.01e-07
x1 = 0.9016	0.111	–
x1 = 0.9181	–	3.41e-07
x1 = 0.9517	0.0589	–
x1 = 0.9584	–	1.81e-07

CCCCCCCCCCCCCCCCC [heptadecane] + CCOC(=O)CC
Settings	excess molar enthalpy [kcal/mol]	excess molar volume [m3/mol]
[1], x2 = 0.1049	0.125	–
[1], x2 = 0.213	0.232	–
[1], x2 = 0.3031	0.311	–
[1], x2 = 0.3846	0.366	–
[1], x2 = 0.4607	0.402	–
[1], x2 = 0.5315	0.42	–
[1], x2 = 0.5885	0.421	–
[1], x2 = 0.6272	0.413	–
[1], x2 = 0.6888	0.386	–
[1], x2 = 0.7229	0.364	–
[1], x2 = 0.7635	0.334	–
[1], x2 = 0.8055	0.296	–
[1], x2 = 0.8479	0.254	–
[1], x2 = 0.8897	0.202	–
[1], x2 = 0.9313	0.138	–
[1], x2 = 0.9727	0.0626	–
[2], x2 = 0.066	–	2.51e-07
[2], x2 = 0.1449	–	5.19e-07
[2], x2 = 0.2675	–	8.82e-07
[2], x2 = 0.3677	–	1.105e-06
[2], x2 = 0.4535	–	1.215e-06
[2], x2 = 0.5272	–	1.268e-06
[2], x2 = 0.5954	–	1.278e-06
[2], x2 = 0.6524	–	1.237e-06
[2], x2 = 0.7503	–	1.094e-06
[2], x2 = 0.7915	–	9.93e-07
[2], x2 = 0.8304	–	8.71e-07
[2], x2 = 0.8626	–	7.59e-07
[2], x2 = 0.8973	–	6.31e-07
[2], x2 = 0.9257	–	4.92e-07
[2], x2 = 0.9523	–	3.54e-07
[2], x2 = 0.9771	–	1.83e-07

CCCCCOC(=O)CC [pentyl propanoate] + CCCCCCCCC
Settings	excess molar enthalpy [kcal/mol]	excess molar volume [m3/mol]
[1], x1 = 0.0584	0.0448	–
[1], x1 = 0.1266	0.0882	–
[1], x1 = 0.1948	0.124	–
[1], x1 = 0.2641	0.151	–
[1], x1 = 0.329	0.168	–
[1], x1 = 0.3907	0.178	–
[1], x1 = 0.4467	0.183	–
[1], x1 = 0.4973	0.184	–
[1], x1 = 0.5431	0.181	–
[1], x1 = 0.576	0.176	–
[1], x1 = 0.5969	0.173	–
[1], x1 = 0.6505	0.161	–
[1], x1 = 0.7085	0.145	–
[1], x1 = 0.7683	0.124	–
[1], x1 = 0.8297	0.0982	–
[1], x1 = 0.8907	0.067	–
[1], x1 = 0.9492	0.0339	–
[2], x1 = 0.0661	–	1.34e-07
[2], x1 = 0.1312	–	2.47e-07
[2], x1 = 0.1902	–	3.19e-07
[2], x1 = 0.2517	–	3.88e-07
[2], x1 = 0.3122	–	4.31e-07
[2], x1 = 0.3722	–	4.6e-07
[2], x1 = 0.4344	–	4.77e-07
[2], x1 = 0.4911	–	4.73e-07
[2], x1 = 0.5498	–	4.62e-07
[2], x1 = 0.6072	–	4.37e-07
[2], x1 = 0.6646	–	3.9e-07
[2], x1 = 0.7225	–	3.49e-07
[2], x1 = 0.778	–	2.91e-07
[2], x1 = 0.8335	–	2.41e-07
[2], x1 = 0.8887	–	1.69e-07
[2], x1 = 0.9434	–	1.01e-07
